Reference: patent US9249180B2, “C-3 alkyl and alkenyl modified betulinic acid derivatives” (priority 2013, dated 2016)

These compounds were tested on recombinant NL4-3 virus (Renilla luciferase in nef, Gag P373S; NLRluc) in MT-2 cells (assay: HIV Cell Culture Assay (luciferase reporter, antiviral activity)). Conditions: MT-2 cells infected for 4-5 days with NLRluc recombinants, serial dilutions of the inhibitor.
Format: cell-based
Protocol: HIV Cell Culture Assay—MT-2 cells and 293T cells were obtained from the NIH AIDS Research and Reference Reagent Program. MT-2 cells were propagated in RPMI 1640 media supplemented with 10% heat inactivated fetal bovine serum, […]. The 293T cells were propagated in DMEM media supplemented with 10% heat inactivated fetal bovine serum (FBS), 100 units/ml penicillin G and 100 μg/ml streptomycin. The proviral DNA clone of NL4-3 was obtained from the NIH AIDS Research and Reference Reagent Program. A recombinant NL4-3 virus, in which a section of the nef gene from NL4-3 was replaced with the Renilla luciferase gene, was used as a reference virus. In addition, residue Gag P373 was converted to P373S. Briefly, the recombinant virus was prepared by transfection of the altered proviral clone of NL4-3. Transfections were performed in 293T cells using LipofectAMINE PLUS from Invitrogen (Carlsbad, Calif.), according to manufacturer's instruction. The virus was titered in MT-2 cells using luciferase enzyme activity as a marker. Luciferase was quantitated using the Dual Luciferase kit from Promega (Madison, Wis.), with modifications to the manufacturer's protocol. The diluted Passive Lysis solution was pre-mixed with the re-suspended Luciferase Assay Reagent and the re-suspended Stop & Glo Substrate (2:1:1 ratio). Fifty (50) μL of the mixture was added to each aspirated well on assay plates and luciferase activity was measured immediately on a Wallac TriLux (Perkin-Elmer). Antiviral activities of inhibitors toward the recombinant virus were quantified by measuring luciferase activity in cells infected for 4-5 days with NLRluc recombinants in the presence serial dilutions of the inhibitor.
In the case of C=C(C)[C@@H]1CC[C@]2(NCCN3CCS(=O)(=O)CC3)CC[C@]3(C)[C@H](CC[C@@H]4[C@@]5(C)CC=C(CC6CCCC(C(=O)O)C6)C(C)(C)[C@@H]5CC[C@]43C)[C@@H]12 (single isomer, unassigned) [Example 3], the EC50 is reported as 1.72 nM.

Same assay, conditions: Renilla, NL43, MT-2 cells infected for 4-5 days with NLRluc recombinants, serial dilutions of the inhibitor
C=C(C)[C@@H]1CC[C@]2(NCCN3CCS(=O)(=O)CC3)CC[C@]3(C)[C@H](CC[C@@H]4[C@@]5(C)CC=C(CCCC(=O)O)C(C)(C)[C@@H]5CC[C@]43C)[C@@H]12 [Example 11, 4-((1R,3aS,5aR,5bR,7aR,11aS,11bR,13aR,13bR)-3a-((2-(1,1-dioxidothiomorpholino)ethyl)amino)-5a,5b,8,8,11a-pentamethyl-1-(prop-1-en-2-yl)-2,3,3a,4,5,5a,5b,6,7,7a,8,11,11a,11b,12,13,13a,13b-octadecahydro-1H-cyclopenta[a]chrysen-9-yl)butanoic acid] showed an EC50 of 10 nM.
Compound C=C(C)[C@@H]1CC[C@]2(NCCN3CCS(=O)(=O)CC3)CC[C@]3(C)[C@H](CC[C@@H]4[C@@]5(C)CC=C(CCCCC(=O)O)C(C)(C)[C@@H]5CC[C@]43C)[C@@H]12 [Example 4, 5-((1R,3aS,5aR,5bR,7aR,11aS,11bR,13aR,13bR)-3a-((2-(1,1-dioxidothiomorpholino)ethyl)amino)-5a,5b,8,8,11a-pentamethyl-1-(prop-1-en-2-yl)-2,3,3a,4,5,5a,5b,6,7,7a,8,11,11a,11b,12,13,13a,13b-octadecahydro-1H-cyclopenta[a]chrysen-9-yl)pentanoic acid] has an EC50 of 2.27 nM.
C=C(C)[C@@H]1CC[C@]2(NCCN3CCS(=O)(=O)CC3)CC[C@]3(C)[C@H](CC[C@@H]4[C@@]5(C)CC=C(CCC(C)(C)CC(=O)O)C(C)(C)[C@@H]5CC[C@]43C)[C@@H]12 [Example 6, 5-((1R,3aS,5aR,5bR,7aR,11aS,11bR,13aR,13bR)-3a-((2-(1,1-dioxidothiomorpholino)ethyl)amino)-5a,5b,8,8,11a-pentamethyl-1-(prop-1-en-2-yl)-2,3,3a,4,5,5a,5b,6,7,7a,8,11,11a,11b,12,13,13a,13b-octadecahydro-1H-cyclopenta[a]chrysen-9-yl)-3,3-dimethylpentanoic acid] was tested, and the EC50 was 1.38 nM.
In the case of C=C(C)[C@@H]1CC[C@]2(NCCN3CCS(=O)(=O)CC3)CC[C@]3(C)[C@H](CC[C@@H]4[C@@]5(C)CC=C(CC6CCCC(C(=O)O)C6)C(C)(C)[C@@H]5CC[C@]43C)[C@@H]12 (single isomer, unassigned) [Example 2], the EC50 is reported as 2 nM.
Compound C=C(C)[C@@H]1CC[C@]2(NCCN3CCS(=O)(=O)CC3)CC[C@]3(C)[C@H](CC[C@@H]4[C@@]5(C)CC=C(/C=C/C6CC6(NC(=O)OC(C)(C)C)C(=O)O)C(C)(C)[C@@H]5CC[C@]43C)[C@@H]12 (stereo partly drawn) [Example B2, 1-((tert-butoxycarbonyl)amino)-2-((E)-2-((1R,3aS,5aR,5bR,7aR,11aS,11bR,13aR,13bR)-3a-((2-(1,1-dioxidothiomorpholino)ethyl)amino)-5a,5b,8,8,11a-pentamethyl-1-(prop-1-en-2-yl)-2,3,3a,4,5,5a,5b,6,7,7a,8,11,11a,11b,12,13,13a,13b-octadecahydro-1H-cyclopenta[a]chrysen-9-yl)vinyl)cyclopropanecarboxylic acid] has an EC50 of 40 nM.
Work on C=C(C)[C@@H]1CC[C@]2(NCCN3CCC(S(C)(=O)=O)CC3)CC[C@]3(C)[C@H](CC[C@@H]4[C@@]5(C)CC=C(C=C6CC(C(=O)O)C6)C(C)(C)[C@@H]5CC[C@]43C)[C@@H]12 (stereo partly drawn) [Example B4, 3-(((1R,3aS,5aR,5bR,7aR,11aS,11bR,13aR,13bR)-5a,5b,8,8,11a-pentamethyl-3a-((2-(4-(methylsulfonyl)piperidin-1-yl)ethyl)amino)-1-(prop-1-en-2-yl)-2,3,3a,4,5,5a,5b,6,7,7a,8,11,11a,11b,12,13,13a,13b-octadecahydro-1H-cyclopenta[a]chrysen-9-yl)methylene)cyclobutanecarboxylic acid] yielded an EC50 of 0.6 nM.
C=C(C)[C@@H]1CC[C@]2(NCCN3CCC(S(C)(=O)=O)CC3)CC[C@]3(C)[C@H](CC[C@@H]4[C@@]5(C)CC=C(CCC(C)(C)CC(=O)O)C(C)(C)[C@@H]5CC[C@]43C)[C@@H]12 [Example 18, 3,3-dimethyl-5-((1R,3aS,5aR,5bR,7aR,11aS,11bR,13aR,13bR)-5a,5b,8,8,11a-pentamethyl-3a-((2-(4-(methylsulfonyl)piperidin-1-yl)ethyl)amino)-1-(prop-1-en-2-yl)-2,3,3a,4,5,5a,5b,6,7,7a,8,11,11a,11b,12,13,13a,13b-octadecahydro-1H-cyclopenta[a]chrysen-9-yl)pentanoic acid] showed an EC50 of 1.1 nM.
With C=C(C)[C@@H]1CC[C@]2(NCCN3CCS(=O)(=O)CC3)CC[C@]3(C)[C@H](CC[C@@H]4[C@@]5(C)CC=C(CC6CCC(C(=O)O)CC6)C(C)(C)[C@@H]5CC[C@]43C)[C@@H]12 (stereo partly drawn) [Example 1, 4-(((1R,3aS,5aR,5bR,7aR,11aS,11bR,13aR,13bR)-3a-((2-(1,1-dioxidothiomorpholino)ethyl)amino)-5a,5b,8,8,11a-pentamethyl-1-(prop-1-en-2-yl)-2,3,3a,4,5,5a,5b,6,7,7a,8,11,11a,11b,12,13,13a,13b-octadecahydro-1H-cyclopenta[a]chrysen-9-yl)methyl)cyclohexanecarboxylic acid] the EC50 was 2.96 nM.
Compound C=C(C)[C@@H]1CC[C@]2(NCCN3CCC(S(C)(=O)=O)CC3)CC[C@]3(C)[C@H](CC[C@@H]4[C@@]5(C)CC=C(C=C6CCC(F)(C(=O)O)CC6)C(C)(C)[C@@H]5CC[C@]43C)[C@@H]12 (mixture of isomers) [Example B3, 1-fluoro-4-(((1R,3aS,5aR,5bR,7aR,11aS,11bR,13aR,13bR)-5a,5b,8,8,11a-pentamethyl-3a-((2-(4-(methylsulfonyl)piperidin-1-yl)ethyl)amino)-1-(prop-1-en-2-yl)-2,3,3a,4,5,5a,5b,6,7,7a,8,11,11a,11b,12,13,13a,13b-octadecahydro-1H-cyclopenta[a]chrysen-9-yl)methylene)cyclohexanecarboxylic acid] has an EC50 of 4.49 nM.
CC(C)[C@@H]1CC[C@]2(NCCN3CCS(=O)(=O)CC3)CC[C@]3(C)[C@H](CC[C@@H]4[C@@]5(C)CCC(CCCC(C)(C)C(=O)O)C(C)(C)[C@@H]5CC[C@]43C)[C@@H]12 (stereo partly drawn) [Example 17, 5-((1S,3aS,5aR,5bR,7aS,11aS,11bR,13aR,13bR)-3a-((2-(1,1-dioxidothiomorpholino)ethyl)amino)-1-isopropyl-5a,5b,8,8,11a-pentamethylicosahydro-1H-cyclopenta[a]chrysen-9-yl)-2,2-dimethylpentanoic acid] gave an EC50 of 7.3 nM.
C=C(C)[C@@H]1CC[C@]2(NCCN3CCS(=O)(=O)CC3)CC[C@]3(C)[C@H](CC[C@@H]4[C@@]5(C)CC=C(CCCC(C(=O)O)C(=O)O)C(C)(C)[C@@H]5CC[C@]43C)[C@@H]12 [Example 5, 2-(3-((1R,3aS,5aR,5bR,7aR,11aS,11bR,13aR,13bR)-3a-((2-(1,1-dioxidothiomorpholino)ethyl)amino)-5a,5b,8,8,11a-pentamethyl-1-(prop-1-en-2-yl)-2,3,3a,4,5,5a,5b,6,7,7a,8,11,11a,11b,12,13,13a,13b-octadecahydro-1H-cyclopenta[a]chrysen-9-yl)propyl)malonic acid] gave an EC50 of 310 nM.
